Where two headings read alike, the source gives them in different places.
Legend:
[1] = HBEA Part B cerebrospinal fluid (CSF) pharmacokinetics after a single dose; type: in vivo, human
From the text: (§1) HBEA is a single ascending dose study of a D1 receptor positive allosteric modulator LY3154207 in healthy volunteers. Study HBEA aims to determine the safety, tolerability, and peripheral and central pharmacokinetics (PK) of single ascending doses of LY3154207 in healthy subjects. Study HBEB aims to evaluate the effect of single-dose LY3154207 on sleep latency in sleep-deprived healthy male subjects as measured by a multiple sleep latency test (MSLT). HBEA was a Phase 1, 2-part, randomized, double-blind, placebo-controlled study in healthy males or females. Part A has a 3-period crossover design with 2 alternating, single-dose escalating cohorts, and subjects were randomized to LY3154207 (n=6) or placebo (n=3) in each cohort in each dosing period. Part B has a single-period, single-dose, 2-cohort design with cerebrospinal fluid (CSF) sampling, and subjects were randomized to LY3154207 (n=8) or placebo (n=4) in each cohort.
HBEA Part B is a study of Cerebrospinal fluid (CSF) and plasma pharmacokinetic (PK) profile following a single dose of LY3154207 in healthy volunteers. The objective of the study is to determine the CSF and plasma PK profile of LY3154207 in a single dose study m healthy volunteers. This study consisted of 2 cohorts in a single-dose, single-period, placebo-controlled, randomized, double-blind, parallel-group study. Subjects were randomized to 25 mg and 75 mg and underwent serial blood and CSF sampling at 2 hours pre-dose and 24 hours post-dose to measure concentrations of LY3154207. Twenty-four subjects enrolled and all completed the study. […] Concentrations of LY3154207 in CSF were detectable up to 8 h after a dose of 25 mg and up to 24 hours after a dose of 75 mg. At each dose about 1% of the total LY3154207 exposure in plasma was available in CSF. At 25 mg and 75 mg, central penetration of LY3154207 was confirmed by measurement of LY3154207 in CSF supporting its use according to the dosing regimens of the present invention in dopaminergic CNS disorders.

healthy subjects = experiment: HBEA Part A single ascending dose study: adverse events, safety, tolerability; type: in vivo, human
Procedure: FIG. 1: Design of the study HBEA, a single ascending dose study of a D1 receptor positive allosteric modulator LY3154207 in healthy volunteers. aSafety review completed after each dose level prior to escalation. bDose escalation was terminated at 200 mg owing to cardiovascular effects. CSF=cerebrospinal fluid: LY=LY3154207: PBO=placebo: PK-pharmacokinetic.
as §1
This is a phase 1, SAD, crossover design of LY3154207 in healthy subjects conducted in 2 alternating cohorts with dose escalation. Subjects are dosed at 25 mg, 75 mg, 100 mg, 150 mg and 200 mg or placebo. Safety parameters assessed include adverse events (AEs), safety laboratories, vital signs, ambulatory blood pressure monitoring (ABPM) and electrocardiogram (ECG). Subjects provide blood samples after dosing to measure plasma concentrations of LY3154207 for assessment of PK.

central penetration by measurement in CSF ([1]; 25 and 75 mg): confirmed
time for which concentrations in CSF were detectable ([1]; after a dose of 25 mg): up to 8 h
time for which concentrations in CSF were detectable ([1]; after a dose of 75 mg): up to 24 hours
Kp ([1]; both sexes, human, CSF, 25 mg and 75 mg, read-out: share of total plasma exposure available in CSF): ~0.01
Tmax ([1]; both sexes, human, CSF, read-out: CSF median tmax): 3 to 4 h
half-life ([1]; both sexes, human, CSF, read-out: CSF t1/2 (converted)): 8 h
Kp ([1]; both sexes, human, CSF, read-out: CSF/unbound plasma ratio): 0.3
SMILES: C[C@H]1c2cccc(CCC(C)(C)O)c2C[C@H](CO)N1C(=O)Cc1c(Cl)cccc1Cl [LY3154207]
serious or severe AEs (healthy subjects; HBEA): No serious or severe AEs occurred
treatment emergent AEs that occurred at doses ≥100 mg, of the total of 111 (healthy subjects; HBEA Part A, doses ≥100 mg): 69/111
severity of treatment-related AEs (healthy subjects; HBEA Part A, occurred primarily at doses ≥100 mg): mostly mild
tolerability (healthy subjects; HBEA, increase in AEs associated with central activation at doses ≥75 mg): well tolerated
frequency of activating adverse events such as insomnia (healthy subjects; above the 75 mg dose): substantial increase in frequency
safety profile (healthy subjects; dose range of 25-200 mg): acceptable safety profile
safety and tolerability (healthy subjects; doses ≤75 mg): acceptable safety and tolerability
Anxiety, treatment-related AE, n subjects (healthy subjects; single dose 25 mg (N = 6)): 0 n
Decreased appetite, treatment-related AE, n subjects (healthy subjects; single dose 25 mg (N = 6)): 0 n
Dizziness, treatment-related AE, n subjects (healthy subjects; single dose 25 mg (N = 6)): 0 n
Dysgeusia, treatment-related AE, n subjects (healthy subjects; single dose 25 mg (N = 6)): 0 n
Energy increased, treatment-related AE, n subjects (healthy subjects; single dose 25 mg (N = 6)): 0 n
Feeling hot, treatment-related AE, n subjects (healthy subjects; single dose 25 mg (N = 6)): 0 n
Headache, treatment-related AE, n subjects (healthy subjects; single dose 25 mg (N = 6)): 0 n
Insomnia, treatment-related AE, n subjects (healthy subjects; single dose 25 mg (N = 6)): 0 n
Nausea, treatment-related AE, n subjects (healthy subjects; single dose 25 mg (N = 6)): 0 n
Treatment-related AEs, (%) (healthy subjects; single dose 25 mg (N = 6)): 16.7%
Treatment-related AEs, [events] (healthy subjects; single dose 25 mg (N = 6)): [1] events
Anxiety, treatment-related AE, n subjects (healthy subjects; single dose 75 mg (N = 6)): 0 n
Decreased appetite, treatment-related AE, [events] (healthy subjects; single dose 75 mg (N = 6)): 1 [1] events
Decreased appetite, treatment-related AE, n subjects (healthy subjects; single dose 75 mg (N = 6)): 1 [1] n
Dizziness, treatment-related AE, [events] (healthy subjects; single dose 75 mg (N = 6)): 2 [2] events
Dizziness, treatment-related AE, n subjects (healthy subjects; single dose 75 mg (N = 6)): 2 [2] n
Dysgeusia, treatment-related AE, n subjects (healthy subjects; single dose 75 mg (N = 6)): 0 n
Energy increased, treatment-related AE, n subjects (healthy subjects; single dose 75 mg (N = 6)): 0 n
Feeling hot, treatment-related AE, n subjects (healthy subjects; single dose 75 mg (N = 6)): 0 n
Headache, treatment-related AE, [events] (healthy subjects; single dose 75 mg (N = 6)): 1 [1] events
Headache, treatment-related AE, n subjects (healthy subjects; single dose 75 mg (N = 6)): 1 [1] n
Insomnia, treatment-related AE, [events] (healthy subjects; single dose 75 mg (N = 6)): 1 [1] events
Insomnia, treatment-related AE, n subjects (healthy subjects; single dose 75 mg (N = 6)): 1 [1] n
Nausea, treatment-related AE, n subjects (healthy subjects; single dose 75 mg (N = 6)): 0 n
Treatment-related AEs, (%) (healthy subjects; single dose 75 mg (N = 6)): 66.7%
Treatment-related AEs, [events] (healthy subjects; single dose 75 mg (N = 6)): [8] events
Anxiety, treatment-related AE, [events] (healthy subjects; single dose 100 mg (N = 8)): 2 [2] events
Anxiety, treatment-related AE, n subjects (healthy subjects; single dose 100 mg (N = 8)): 2 [2] n
Decreased appetite, treatment-related AE, [events] (healthy subjects; single dose 100 mg (N = 8)): 1 [1] events
Decreased appetite, treatment-related AE, n subjects (healthy subjects; single dose 100 mg (N = 8)): 1 [1] n
Dizziness, treatment-related AE, [events] (healthy subjects; single dose 100 mg (N = 8)): 1 [1] events
Dizziness, treatment-related AE, n subjects (healthy subjects; single dose 100 mg (N = 8)): 1 [1] n
Dysgeusia, treatment-related AE, [events] (healthy subjects; single dose 100 mg (N = 8)): 2 [2] events
Dysgeusia, treatment-related AE, n subjects (healthy subjects; single dose 100 mg (N = 8)): 2 [2] n
Energy increased, treatment-related AE, [events] (healthy subjects; single dose 100 mg (N = 8)): 1 [1] events
Energy increased, treatment-related AE, n subjects (healthy subjects; single dose 100 mg (N = 8)): 1 [1] n
Feeling hot, treatment-related AE, [events] (healthy subjects; single dose 100 mg (N = 8)): 1 [1] events
Feeling hot, treatment-related AE, n subjects (healthy subjects; single dose 100 mg (N = 8)): 1 [1] n
Headache, treatment-related AE, n subjects (healthy subjects; single dose 100 mg (N = 8)): 0 n
Insomnia, treatment-related AE, [events] (healthy subjects; single dose 100 mg (N = 8)): 4 [4] events
Insomnia, treatment-related AE, n subjects (healthy subjects; single dose 100 mg (N = 8)): 4 [4] n
Nausea, treatment-related AE, n subjects (healthy subjects; single dose 100 mg (N = 8)): 0 n
Treatment-related AEs, (%) (healthy subjects; single dose 100 mg (N = 8)): 75.0%
Treatment-related AEs, [events] (healthy subjects; single dose 100 mg (N = 8)): [17] events
Anxiety, treatment-related AE, [events] (healthy subjects; single dose 150 mg (N = 9)): 4 events
Anxiety, treatment-related AE, n subjects (healthy subjects; single dose 150 mg (N = 9)): 3 n
Decreased appetite, treatment-related AE, [events] (healthy subjects; single dose 150 mg (N = 9)): 3 [3] events
Decreased appetite, treatment-related AE, n subjects (healthy subjects; single dose 150 mg (N = 9)): 3 [3] n
Dizziness, treatment-related AE, [events] (healthy subjects; single dose 150 mg (N = 9)): 2 [2] events
Dizziness, treatment-related AE, n subjects (healthy subjects; single dose 150 mg (N = 9)): 2 [2] n
Dysgeusia, treatment-related AE, [events] (healthy subjects; single dose 150 mg (N = 9)): 2 [2] events
Dysgeusia, treatment-related AE, n subjects (healthy subjects; single dose 150 mg (N = 9)): 2 [2] n
Energy increased, treatment-related AE, [events] (healthy subjects; single dose 150 mg (N = 9)): 1 [1] events
Energy increased, treatment-related AE, n subjects (healthy subjects; single dose 150 mg (N = 9)): 1 [1] n
Feeling hot, treatment-related AE, [events] (healthy subjects; single dose 150 mg (N = 9)): 1 [1] events
Feeling hot, treatment-related AE, n subjects (healthy subjects; single dose 150 mg (N = 9)): 1 [1] n
Headache, treatment-related AE, [events] (healthy subjects; single dose 150 mg (N = 9)): 2 [2] events
Headache, treatment-related AE, n subjects (healthy subjects; single dose 150 mg (N = 9)): 2 [2] n
Insomnia, treatment-related AE, [events] (healthy subjects; single dose 150 mg (N = 9)): 3 [3] events
Insomnia, treatment-related AE, n subjects (healthy subjects; single dose 150 mg (N = 9)): 3 [3] n
Nausea, treatment-related AE, [events] (healthy subjects; single dose 150 mg (N = 9)): 2 [2] events
Nausea, treatment-related AE, n subjects (healthy subjects; single dose 150 mg (N = 9)): 2 [2] n
Treatment-related AEs, (%) (healthy subjects; single dose 150 mg (N = 9)): 88.9%
Treatment-related AEs, [events] (healthy subjects; single dose 150 mg (N = 9)): [34] events
Anxiety, treatment-related AE, [events] (healthy subjects; single dose 200 mg (N = 6)): 1 [1] events
Anxiety, treatment-related AE, n subjects (healthy subjects; single dose 200 mg (N = 6)): 1 [1] n
Decreased appetite, treatment-related AE, [events] (healthy subjects; single dose 200 mg (N = 6)): 2 [2] events
Decreased appetite, treatment-related AE, n subjects (healthy subjects; single dose 200 mg (N = 6)): 2 [2] n
Dizziness, treatment-related AE, [events] (healthy subjects; single dose 200 mg (N = 6)): 1 [1] events
Dizziness, treatment-related AE, n subjects (healthy subjects; single dose 200 mg (N = 6)): 1 [1] n
Dysgeusia, treatment-related AE, n subjects (healthy subjects; single dose 200 mg (N = 6)): 0 n
Energy increased, treatment-related AE, [events] (healthy subjects; single dose 200 mg (N = 6)): 1 [1] events
Energy increased, treatment-related AE, n subjects (healthy subjects; single dose 200 mg (N = 6)): 1 [1] n
Feeling hot, treatment-related AE, [events] (healthy subjects; single dose 200 mg (N = 6)): 1 [1] events
Feeling hot, treatment-related AE, n subjects (healthy subjects; single dose 200 mg (N = 6)): 1 [1] n
Headache, treatment-related AE, n subjects (healthy subjects; single dose 200 mg (N = 6)): 0 n
Insomnia, treatment-related AE, [events] (healthy subjects; single dose 200 mg (N = 6)): 3 [3] events
Insomnia, treatment-related AE, n subjects (healthy subjects; single dose 200 mg (N = 6)): 3 [3] n
Nausea, treatment-related AE, [events] (healthy subjects; single dose 200 mg (N = 6)): 2 [2] events
Nausea, treatment-related AE, n subjects (healthy subjects; single dose 200 mg (N = 6)): 2 [2] n
Treatment-related AEs, (%) (healthy subjects; single dose 200 mg (N = 6)): 83.3%
Treatment-related AEs, [events] (healthy subjects; single dose 200 mg (N = 6)): [18] events
